“And” between values parts separate entries of the source, which are not always exact repeats. Equal entries are not always repeated.
Experiments:
HEK-293-αVβ3 cells [1] = molecular target: T1, HEK-293-αVβ3 cells (Homo sapiens, UniProt P05106+P06756); assay: AP5 Binding Assay; type: cell-based; settings: for activation at 10 µM: relative to AP5 expression induced by cilengitide, read-out: AP5 expression induced at the highest concentration; for EC50: concentration inducing 50% of the AP5 expression induced by 1 μM cilengitide
T1 sequence (P05106 whole entry): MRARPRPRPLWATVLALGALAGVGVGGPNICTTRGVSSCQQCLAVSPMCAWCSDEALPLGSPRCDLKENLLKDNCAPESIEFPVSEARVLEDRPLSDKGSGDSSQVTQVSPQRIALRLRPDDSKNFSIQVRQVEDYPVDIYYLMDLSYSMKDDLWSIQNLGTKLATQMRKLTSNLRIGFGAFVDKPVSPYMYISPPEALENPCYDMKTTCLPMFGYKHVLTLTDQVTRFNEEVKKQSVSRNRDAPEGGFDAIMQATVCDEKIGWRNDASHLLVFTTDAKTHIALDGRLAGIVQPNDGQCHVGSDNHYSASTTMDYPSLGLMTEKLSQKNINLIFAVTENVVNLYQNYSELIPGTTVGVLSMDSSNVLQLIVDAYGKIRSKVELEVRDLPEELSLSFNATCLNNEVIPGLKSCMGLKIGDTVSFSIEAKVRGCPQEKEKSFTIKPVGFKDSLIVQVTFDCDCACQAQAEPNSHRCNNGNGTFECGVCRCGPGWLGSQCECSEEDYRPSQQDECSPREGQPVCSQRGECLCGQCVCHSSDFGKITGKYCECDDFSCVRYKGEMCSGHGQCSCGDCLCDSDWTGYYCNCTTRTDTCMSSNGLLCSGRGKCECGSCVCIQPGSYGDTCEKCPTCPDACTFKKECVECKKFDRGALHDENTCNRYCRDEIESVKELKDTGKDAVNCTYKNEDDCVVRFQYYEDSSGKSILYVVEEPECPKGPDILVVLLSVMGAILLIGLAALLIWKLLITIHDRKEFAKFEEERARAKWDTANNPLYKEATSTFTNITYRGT
T1 sequence (P06756 whole entry): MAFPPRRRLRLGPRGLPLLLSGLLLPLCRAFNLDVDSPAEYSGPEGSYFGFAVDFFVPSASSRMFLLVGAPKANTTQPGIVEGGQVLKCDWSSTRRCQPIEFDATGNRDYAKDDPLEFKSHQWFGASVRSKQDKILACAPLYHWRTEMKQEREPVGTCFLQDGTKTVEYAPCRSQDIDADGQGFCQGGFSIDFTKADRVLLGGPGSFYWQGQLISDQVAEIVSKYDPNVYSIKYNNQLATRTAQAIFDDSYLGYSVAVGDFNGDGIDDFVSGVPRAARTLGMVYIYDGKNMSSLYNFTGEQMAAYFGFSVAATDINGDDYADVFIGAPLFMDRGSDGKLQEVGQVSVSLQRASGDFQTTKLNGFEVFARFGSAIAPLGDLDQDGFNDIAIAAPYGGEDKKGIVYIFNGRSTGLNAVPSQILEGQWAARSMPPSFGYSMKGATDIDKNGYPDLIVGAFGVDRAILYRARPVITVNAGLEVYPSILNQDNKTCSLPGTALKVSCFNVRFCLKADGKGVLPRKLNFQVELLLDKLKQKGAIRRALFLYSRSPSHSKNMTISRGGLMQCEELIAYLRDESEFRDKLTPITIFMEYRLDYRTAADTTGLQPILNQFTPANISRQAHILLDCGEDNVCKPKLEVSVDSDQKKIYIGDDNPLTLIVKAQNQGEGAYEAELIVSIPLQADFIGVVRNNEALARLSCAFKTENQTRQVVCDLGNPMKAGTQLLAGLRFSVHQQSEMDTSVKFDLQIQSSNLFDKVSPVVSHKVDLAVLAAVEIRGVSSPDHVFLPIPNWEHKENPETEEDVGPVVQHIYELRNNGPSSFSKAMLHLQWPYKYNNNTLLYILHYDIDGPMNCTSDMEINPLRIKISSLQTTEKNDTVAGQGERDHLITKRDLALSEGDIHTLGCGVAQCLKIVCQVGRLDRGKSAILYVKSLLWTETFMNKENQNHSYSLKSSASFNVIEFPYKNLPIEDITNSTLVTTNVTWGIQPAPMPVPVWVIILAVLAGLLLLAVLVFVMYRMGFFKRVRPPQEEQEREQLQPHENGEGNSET
From the text: (§1) HEK-293 Cells Expressing αVβ3. HEK-293 cells were transfected using lipofectamine 2000 (Invitrogen #11668030) with the cDNA for αV using the pEF1/V5-His A vector and the cDNA for β3 using the vector pcDNA3.1. Cells expressing αVβ3 were identified by their reaction with murine monoclonal antibodies (mAbs) LM609 and 7E3, and stable cell lines were established by repetitive sorting using LM609. […] HEK-293-αVβ3 cells for assays are counted in an automated cell counter (ADVIA 120) and adjusted to values appropriate for each assay.
AP5 Binding Assay. HEK-293-αVβ3 cells are harvested using 0.05% trypsin 0.5 mM EDTA, washed with HBMT once, and resuspended in HBMT containing 1 mM Mg2+ and 2 mM Ca2+. The cells are counted and adjusted to 0.5×10^6 cells per sample. The compound to be tested and fluorescently labeled mAb AP5 (either Alexa 488 or Alexa 674; 10 μg/mL) are added and incubated for 30 minutes at 37° C. The cells are then washed and analyzed by flow cytometry (BD FACSCalibur) at the appropriate wavelength for detecting the AP5 fluorophore. In each assay, cilengitide (1 μM) and 10 mM EDTA are included as positive controls and untreated cells are used as the negative control. The concentration of the test compound required to induce the expression of 50% of the AP5 expression induced by cilengitide is calculated and defined as the EC50. The EC50 for cilengitide was determined based on the expression induced by EDTA.

HEK-293-αVβ3 cells [2] = molecular target: T1, HEK-293-αVβ3 cells; assay: αVβ3 Cell Adhesion to Fibrinogen Assay; type: cell-based; parameters: IC50; other: dose reducing by 50% the adhesion of HEK-293-αVβ3 cells to fibrinogen; untreated cells 100% adhesion, 10 mM EDTA 0%; settings: for IC50: dose reducing by 50% the adhesion of HEK-293-αVβ3 cells to fibrinogen, separate determinations listed; for inhibition at specific dose 0.1: dose 0.1 (table in μM), untreated cells 100% adhesion, 10 mM EDTA 0%
From the text: as §1
αVβ3 Cell Adhesion to Fibrinogen Assay. Polystyrene 96-well microtiter plates (Costar, 3590) are precoated with 3.5 μg/mL of purified fibrinogen (Enzyme Research Laboratories) in 0.15 M NaCl, 0.01 M Tris/HCL, pH 7.4 for 1 hour at 37° C. The wells are then washed and incubated with HEPES-Buffered Modified Tyrode's solution (HBMT; 0.128 M NaCl, 10 mM HEPES, 12 mM NaHCO3, 0.4 mM NaH2PO4, 2.7 mM KCl, 0.35% bovine serum albumin (Fisher), 0.1% glucose, pH 7.4) for 1 hour at room temperature or overnight at 4° C. Wells are washed with HBMT containing 1 mM Mg2+ and 2 mM Ca2+ and then 50 μL of HEK-293-αVβ3 cells that have been pretreated with the compound to be tested for 20 minutes at room temperature are added to each well at a concentration of 3,000 cells/μL. After 30-32 minutes the wells are washed with HBMT containing Ca2+ and Mg2+ three times and then the adherent cells are lysed and the acid phosphatase activity that is released is measured by: 1. adding phosphatase substrate (Sigma EC 224-246-5) at 2 mg/mL in 0.1 M Na citrate, pH 5.6, 0.1% triton X-100 for 1 hour at room temperature; 2. stopping the reaction by adding 50 μL of 2 M NaOH; and 3. analyzing the samples in a spectrophotometer at 405 nm. In each assay, 10 mM EDTA is used as a positive control and untreated cells are used as a negative control. The IC50 is the dose of test compound that reduces by 50% the adhesion of the HEK-293-αVβ3 cells, taking the results with untreated cells as 100% and the results in the presence of EDTA as 0%. In some instances more than one IC50 determination was made, in which case, results of separate determinations are reported. IC50's were not determined for all compounds in the table; for some of these test compounds the inhibition at specific doses are reported. In some instances, the test compound produced a greater reduction than 10 mM EDTA, and these are shown as negative numbers.

activation at 10 µM (HEK-293-αVβ3 cells [1]) [%]	EC50 (HEK-293-αVβ3 cells [1]) [nM]	IC50 (HEK-293-αVβ3 cells [2])	AP5 expression (HEK-293-αVβ3 cells [1]; 1 μM cilengitide, average±SD of 17 experiments)	inhibition at specific dose 0.1 (HEK-293-αVβ3 cells [2]) [%]	Compound
9	> 10000	939 nM			O=C(CCCCc1ccc2c(n1)NCCC2)NCCC(C(=O)O)n1cc(-c2ccccc2)nn1 (centres unmarked) [Example 76, 2-(4-phenyltriazol-1-yl)-4-[5-(5,6,7,8-tetrahydro-1,8-naphthyridin-2-yl)pentanoylamino]butanoic acid]
			42.5±8.0 arbitrary fluorescence units		CC(C)[C@H]1C(=O)N[C@@H](CCCN=C(N)N)C(=O)NCC(=O)N[C@@H](CC(=O)O)C(=O)N[C@H](Cc2ccccc2)C(=O)N1C [cilengitide, reference compound]
7	> 10000	129 nM and 169 nM			O=C(CCCCc1ccc2c(n1)NCCC2)NCC[C@@H](NC(=O)c1nc2ccccc2s1)C(=O)O [Example 86, (R)-2-(benzo[d]thiazole-2-carboxamido)-4-(5-(5,6,7,8-tetrahydro-1,8-naphthyridin-2-yl)pentanamido)butanoic acid]
16	> 10000	< 100 nM			CC1(C)[C@@H]2CC[C@]1(CS(=O)(=O)NC(CCNC(=O)CCCCc1ccc3c(n1)NCCC3)C(=O)O)C(=O)C2 (some centres unmarked) [Example 50]
31	> 10000	121 nM			O=C(CCCCc1ccc2c(n1)NCCC2)NCCC(C(=O)O)c1cnc2ccccc2c1 (centres unmarked) [Example 84, 2-(quinolin-3-yl)-4-(5-(5,6,7,8-tetrahydro-1,8-naphthyridin-2-yl)pentanamido)butanoic acid]
23	> 10000	2450 nM			COC(=O)C(CCNC(=O)CCCCc1ccc2c(n1)NCCC2)NC(=O)OCc1ccccc1 (centres unmarked) [Example 5, Methyl 2-(benzyloxycarbonylamino)-4-[5-(5,6,7,8-tetrahydro-1,8-naphthyridin-2-yl)pentanoylamino]butanoate]
12	> 10000	628 nM			O=C(CCCCc1ccc2c(n1)NCCC2)NCCC(NC(=O)OCC(F)(F)C(F)(F)F)C(=O)O (centres unmarked) [Example 62]
9	> 10000	320 nM			O=C(CCCCc1ccc2c(n1)NCCC2)NCCC(NC(=O)OCc1ccc(F)c(F)c1)C(=O)O (centres unmarked) [Example 68]
12	> 10000	206 nM			O=C(CCCCc1nc2c(cc1C1CC1)CCCN2)NCCC(NC(=O)OCc1ccccc1)C(=O)O (centres unmarked) [Example 82, 2-(benzyloxycarbonyl-amino)-4-[5-(3-cyclopropyl-5,6,7,8-tetrahydro-1,8-naphthyridin-2-yl)pentanoyl-amino]butanoic acid]
				40	O=C(CCCCc1ccc2c(n1)NCCC2)NCCC(NS(=O)(=O)c1ccc2ccccc2c1)C(=O)O (centres unmarked) [Example 45]
19	> 10000	286 nM and 1680 nM			COC(=O)[C@H](CCNC(=O)CCCCc1ccc2c(n1)NCCC2)NC(=O)OCc1ccccc1 [Example 2, Methyl (2S)-2-(benzyloxycarbonylamino)-4-[5-(5,6,7,8-tetrahydro-1,8-naphthyridin-2-yl)pentanoylamino]butanoate]
6	> 10000	181 nM and 90.4 nM and 185 nM			O=C(CCCCc1ccc2c(n1)NCCC2)NCCC(NC(=O)c1ncc(-c2ccccc2)s1)C(=O)O (centres unmarked) [Example 72, 2-[(5-phenylthiazole-2-carbonyl)amino]-4-[5-(5,6,7,8-tetrahydro-1,8-naphthyridin-2-yl)pentanoylamino]butanoic acid]
		> 10000 nM			CC(CCNC(=O)CCCCc1ccc2c(n1)NCCC2)C(=O)O (centres unmarked) [Example 12, 2-Methyl-4-[5-(5,6,7,8-tetrahydro-1,8-naphthyridin-2-yl)pentanoylamino]butanoic acid]
22	> 10000	1330 nM		40	O=C(CCCCc1ccc2c(n1)NCCC2)NCCC(NS(=O)(=O)c1cccnc1)C(=O)O (centres unmarked) [Example 44]
16	> 10000	146 nM and 484 nM and 699 nM and 362 nM and 324 nM and 344 nM			O=C(CCCCc1ccc2c(n1)NCCC2)NCC[C@H](NC(=O)OCc1ccccc1)C(=O)O [Example 3, (2S)-2-(Benzyloxycarbonylamino)-4-[5-(5,6,7,8-tetrahydro-1,8-naphthyridin-2-yl)pentanoylamino]butanoic acid]
10	> 10000	579 nM			COc1ccc(COC(=O)NC(CCNC(=O)CCCCc2ccc3c(n2)NCCC3)C(=O)O)cc1 (centres unmarked) [Example 60]
7.5	> 10000	1570 nM and 429 nM			O=C(CCCCc1ccc2c(n1)NCCC2)NCCC(C(=O)O)c1ccc(Oc2ccccc2)nc1 (centres unmarked) [Example 80, 2-(6-phenoxy-3-pyridyl)-4-[5-(5,6,7,8-tetrahydro-1,8-naphthyridin-2-yl)pentanoylamino]butanoic acid]
	> 10000	288 nM			O=C(CCCCc1ccc2c(n1)NCCC2)NCCC(C(=O)O)n1cnc(-c2ccccc2)n1 (single isomer, unassigned) [Example 93, (S or R)-2-(3-phenyl-1,2,4-triazol-1-yl)-4-[5-(5,6,7,8-tetrahydro-1,8-naphthyridin-2-yl)pentanoylamino]-butanoic acid]
13	> 10000	320 nM			O=C(CCCCc1ccc2c(n1)NCCC2)NCCC(NC(=O)OCc1ccc(F)cc1)C(=O)O (centres unmarked) [Example 67]
		> 10000 nM			COC(=O)C(CCNC(=O)CCCCc1ccc2c(n1)NCCC2)Cc1ccccc1 (centres unmarked) [Example 11, Methyl 2-benzyl-4-[5-(5,6,7,8-tetrahydro-1,8-naphthyridin-2-yl)pentanoylamino]butanoate]
		> 10000 nM			O=C(CCCCc1ccc2c(n1)NCCC2)NCCC(Cc1ccccc1)C(=O)O (centres unmarked) [Example 13, 2-Benzyl-4-[5-(5,6,7,8-tetrahydro-1,8-naphthyridin-2-yl)pentanoylamino]butanoic acid]
		373 nM			O=C(CCCCc1ccc2c(n1)NCCC2)NCCC(C(=O)O)n1cnc(-c2ccccc2)n1 (single isomer, unassigned) [Example 94, (S or R)-2-(3-phenyl-1,2,4-triazol-1-yl)-4-[5-(5,6,7,8-tetrahydro-1,8-naphthyridin-2-yl)pentanoylamino]butanoic acid]
		> 10000 nM			O=C(CCCCc1ccc2c(n1)NCCC2)NCCC(NS(=O)(=O)c1ccc(Oc2ccccc2)cc1)C(=O)O (centres unmarked) [Example 48]
		> 10000 nM			COC(=O)[C@@H](CCNC(=O)CCCCc1ccc2c(n1)NCCC2)NC(=O)OCc1ccccc1 [Example 6, Methyl (2R)-2-(benzyloxycarbonylamino)-4-[5-(5,6,7,8-tetrahydro-1,8-naphthyridin-2-yl)pentanoylamino]butanoate]
		> 10000 nM			COC(=O)C(C)CCNC(=O)CCCCc1ccc2c(n1)NCCC2 (centres unmarked) [Example 10, Methyl 2-methyl-4-[5-(5,6,7,8-tetrahydro-1,8-naphthyridin-2-yl)pentanoylamino]butanoate]
		> 10000 nM			O=C(CCCCc1ccc2c(n1)NCCC2)NCCC(NC(=O)Nc1ccc(Oc2ccccc2)cc1)C(=O)O (centres unmarked) [Example 59]
		> 10000 nM			COC(=O)C(CCNC(=O)CCCCc1ccc2c(n1)NCCC2)c1ccccc1 (centres unmarked) [Example 8, Methyl 2-phenyl-4-[5-(5,6,7,8-tetrahydro-1,8-naphthyridin-2-yl)pentanoylamino]butanoate]
